“Also recorded” adds a separate entry of the source.

The test system of the assay is elastase. Nature of the assay: Degradation of rabbit lung Annexin I to 33 kDa(BP) by elastase, with and without PMSF. The format is biochemical. Particulars: PMSF present in the reaction solution; concentration not given; substrate rabbit lung Annexin I.

Turning to `O=S(=O)(F)Cc1ccccc1` [PMSF, phenylmethyl sulfonyl fluoride], the “inhibition of the proteolytic hydrolysis of Annexin I catalyzed by elastase” value is reported as “totally inhibited; also recorded: prevented Annexin I degradation”.
